Measured values taken from publication PMC2933066 (Bioorganic & medicinal chemistry letters, 2010).
Converted amounts (≈) assume the structure as drawn.

Key:
[1] = test system: A549 (human lung adenocarcinoma); conditions: cited from earlier work
[2] = test system: KB (human epidermoid carcinoma of the nasopharynx); conditions: cited from earlier work
tubulin = format: biochemical; conditions: read-out: Inhibition of tubulin assembly IC50 (μM) ± SD

Structure (SMILES) | ED50 against A549 [1] [µg/mL] | ED50 against KB [2] [µg/mL] | IC50 (tubulin) [µM]
COc1cc2c(c(OC)c1O)-c1ccc(SC)c(=O)cc1C(NC(C)=O)CC2 (centres unmarked) [Compound 3, 2-Demethylthiocolchicine] | 0.01 (≈ 0.0249 µM) | 0.01 (≈ 0.0249 µM) | –
CCCN([C@H]1CCc2cc(OC)c(OC)c(OC)c2-c2ccc(SC)c(=O)cc21)S(=O)(=O)c1ccccc1[N+](=O)[O-] [Compound 13] | – | – | > 40
CN[C@H]1CCc2cc(OC)c(O)c(OC)c2-c2ccc(SC)c(=O)cc21 [Compound 15] | – | – | > 40
CN[C@H]1CCc2cc(OC)c(OP(=O)(O)O)c(OC)c2-c2ccc(SC)c(=O)cc21 [Compound 16] | – | – | > 40
